The test deals with T1, recombinant human EP-2 receptor (Homo sapiens, UniProt P43116).
T1 construct: stably transfected with full length cDNA encoding human Prostaglandin E2; expressed in transfected cells
Briefly: In vitro antagonist potency against recombinant human prostaglandin E2 (EP-2) receptor in CHO cells (cAMP). In kind it is cell-based. The conditions noted are these: CHO cells expressing recombinant human EP-2 receptor, stimulated with PGE2 5 nM; cAMP readout; Ki from IC50 by Cheng-Prusoff; read-out: EP2 Ki. The protocol:
1.0 Measurement of In Vitro Antagonist Potency (IC50) of Compounds Against Recombinant Human Prostaglandin E2 Receptor in CHO Cells.
The prostaglandin E2 (EP-2) receptor is Gs coupled and agonism of the receptor by PGE2 results in activation of intracellular adenylate cyclase enzymes that synthesise the second messenger signalling molecule, adenosine 3′,5′-cyclic monophosphate (cAMP). CHO cells expressing the recombinant human EP-2 receptor are stimulated with PGE2 (5 nM) equivalent to approximately […] values to give the maximal cAMP signal. Decreases in cAMP levels following treatment of stimulated recombinant EP-2 cells with potential antagonist compounds were measured and potency (IC50) calculated as follows.
A Chinese hamster ovary (CHO) cell line stably transfected with full length cDNA encoding human Prostaglandin E2 was established using standard molecular biology methods. Test compounds were dissolved in dimethyl sulphoxide (DMSO) at 4 mM. 11 point half log unit increment dilution series of test compound were prepared in DMSO then diluted 1 in 40 in a buffer comprised of phosphate buffered saline (PBS) and 0.05% pluronic F-127 surfactant. Freshly cultured cells at 80-90% confluence were harvested and re-suspended in 90% growth media/10% DMSO. The cells were frozen using a planar freezer and stored in frozen aliquots in cryovials in liquid nitrogen until the day of the experiment. A vial of cells was defrosted in a 37° C. water bath for 2 min, then transferred to 10 ml of Dulbecco's Modified Eagle's Medium (DMEM). The cells were then centrifuged for 5 min at 1000 g and the pellet re-suspended at 1,000,000 cells/ml in DMEM. 5,000 cells (5 ul) were added to 5 ul of the compound dilution series in a 384 well assay plate and pre-incubated for 30 min at 37° C. 5 ul of agonist (15 nM PGE2 in PBS to give 5 nM FAC) was added and plates further incubated for 90 min at 37° C. The relative cAMP concentration in each well was then measured using a β-galactosidase enzyme fragment complementation method purchased in kit form as the Discoverx cAMP II kit from GE Healthcare, UK. […] Sigmoidal curves were fitted to plots of log10 inhibitor concentration vs. percent effect. IC50 estimates were determined as the concentration of test compound giving an effect half way between the bottom and top asymptotes of the sigmoidal dose response curve. Each experiment included an IC50 determination for the literature compound as a standard to track assay consistency and allow fair comparison between values obtained in different experiments. The EC50 of PGE2 is used in combination with the ligand concentration in the assay to determine Ki values for antagonist dose responses using the Cheng-Prusoff equation. Consequently an agonist dose response curve is carried out for each experiment using the same incubation as the antagonist plate.

The term Ki denotes the dissociation constant of the complex between target and ligand, obtained from inhibition or displacement.

T1 sequence (P43116 whole entry): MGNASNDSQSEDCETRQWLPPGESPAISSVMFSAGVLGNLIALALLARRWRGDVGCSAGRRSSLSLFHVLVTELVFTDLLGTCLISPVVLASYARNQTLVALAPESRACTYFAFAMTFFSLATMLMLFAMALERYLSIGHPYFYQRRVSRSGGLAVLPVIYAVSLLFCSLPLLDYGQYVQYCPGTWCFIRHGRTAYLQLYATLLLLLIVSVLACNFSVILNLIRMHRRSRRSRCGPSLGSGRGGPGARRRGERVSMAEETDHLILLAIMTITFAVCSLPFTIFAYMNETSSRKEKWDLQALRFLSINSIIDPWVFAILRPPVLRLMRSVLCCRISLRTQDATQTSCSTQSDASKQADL

Take `O=C(Nc1cccc(Cl)c1)N1CC(Cn2nnc(-c3cccc(F)c3)n2)(C(=O)O)C1` [Example 70]: the inhibition constant (Ki) is 386 nM.
With `O=C(Nc1cccc(F)c1)N1CC(Cn2nnc(-c3ccc(Cl)s3)n2)(C(=O)O)C1` [Example 71], the Ki came to 519 nM.

For the origin of these results see patent US20100256109A1, “Azetidines As EP2 Antagonists” (priority 2007, published 2010).
